Measured values as given in patent US20130224219A1, “DRUG AND METHOD FOR THE PROPHYLAXIS OF HIV INFECTION AND FOR THE PROPHYLAXIS AND TREATMENT OF DISEASES CAUSED BY OR ASSOCIATED WITH HIV, INCLUDING AIDS” (priority 2010, published 2013).

System: HIV-1-LAI
Experiment: Inhibition of HIV replication in human peripheral blood mononuclear cells infected in vitro, p24 ELISA
Format: cell-based
Settings: Human immunodeficiency virus 1, PBMC, read-out: inhibition of HIV replication (nucleocapsid core protein p24 in cell supernatants)
Description: Antiretroviral action of the claimed medicinal agent was studied by inhibiting the replication of HIV in the culture of mononuclear cells of the peripheral human blood which were infected in vitro by the strain of HIV-1-LAI. Effective inhibition of HIV replication was evaluated by the content of basic nuclecapsid protein r24 in the supernatant of HIV.
Human peripheral blood mononuclear cells were isolated from the blood of healthy seronegative donors by density gradient centrifugation of Ficoll-Hypaque. Cells were activated for 3 days with […] phytogemmaglyutin P and 5 ME/ml of recombinant human interleukin-2 […]
Cell culture supernatants were collected at day 7 after infection. Efficacy of the drugs was determined by the inhibition of HIV replication, which was evaluated by content nucleocapsid core protein p24 of HIV in cell supernatants by ELISA (Retrotek Elisa kit).
Antiretroviral effect of the claimed medicinal agent studied by inhibiting HIV replication in cultured peripheral blood mononuclear cells of human infected in vitro HIV-1-LAI. Effective inhibition of HIV replication was evaluated by the content of basic nucleocapsid protein p24 in the supernatants of HIV. […]

SMILES: Cc1cn([C@H]2C[C@H](N=[N+]=[N-])[C@@H](CO)O2)c(=O)[nH]c1=O [AZT, zidovudine]
- inhibition at 1 µM: 99%
